The conditions of the data set: for mass density: 298.15 K, 101.33 kPa, Liquid, Pycnometric method; for Glass transition temperature / Normal melting temperature: DTA; for Normal melting temperature: Crystal.

Numbers after ± are expanded uncertainties.

Broadly, the mass density is mass per unit of volume.

As to `CCCCCCCCn1cc[n+](C)c1.O=S(=O)([N-]S(=O)(=O)C(F)(F)F)C(F)(F)F`, the mass density is 1310 ± 20 kg/m3 and the Glass transition temperature was -86.00 ± 2 °C.

Take `CCCC[n+]1ccc(C)cc1.O=S(=O)([N-]S(=O)(=O)C(F)(F)F)C(F)(F)F`: the mass density was determined as 1350 ± 20 kg/m3, the Normal melting temperature was 10.00 ± 2 °C and the Glass transition temperature was -80.00 ± 2 °C.

With `CCCC[n+]1ccc(C)cc1.O=S(=O)([O-])C(F)(F)C(F)(F)C(F)(F)C(F)(F)F`, the Normal melting temperature came to 70.00 ± 2 °C and the Glass transition temperature is -34.00 ± 2 °C.

With `CCCC[n+]1ccn(C)c1.O=S(=O)([N-]S(=O)(=O)C(F)(F)F)C(F)(F)F`, the Normal melting temperature was -4.00 ± 2 °C.

`CCCCn1cc[n+](C)c1.O=S(=O)([O-])C(F)(F)F` [1-butyl-3-methylimidazolium trifluoromethanesulfonate]: the Normal melting temperature was found to be 15.00 ± 2 °C.

Turning to `CCCC[n+]1ccc(C)cc1.O=S(=O)([O-])C(F)(F)F` [1-butyl-4-methylpyridinium trifluoromethanesulfonate], the mass density was 1170 ± 20 kg/m3, the Normal melting temperature came to 38.00 ± 2 °C and the Glass transition temperature was -68.00 ± 2 °C.

Take `CCCCCCCCn1cc[n+](C)c1.O=S(=O)([O-])C(F)(F)C(F)(F)C(F)(F)C(F)(F)F` [1-methyl-3-octylimidazolium perfluorobutanesulfonate]: the mass density is recorded as 1330 ± 20 kg/m3, the Normal melting temperature was 32.00 ± 2 °C and the Glass transition temperature is -86.00 ± 2 °C.

In the case of `CCCCCCCCn1cc[n+](C)c1.O=S(=O)([O-])C(F)(F)F` [1-octyl-3-methylimidazolium trifluoromethanesulfonate], the mass density is 1120 ± 20 kg/m3, the Normal melting temperature stood at 5.00 ± 2 °C and the Glass transition temperature was -80.00 ± 2 °C.

Turning to `CCCCCCCCn1cc[n+](C)c1.N#C[N-]C#N` [3-methyl-1-octylimidazolium dicyanamide], the mass density stood at 1000 ± 20 kg/m3, the Normal melting temperature is -5.00 ± 2 °C and the Glass transition temperature was -89.00 ± 2 °C.
